Measured values taken from paper PMC5779043 (Journal of the American Heart Association: Cardiovascular …, 2017).

Columns and labels:
[1] = test system: intraluminal occlusion of the middle cerebral artery (MCA); experiment: Grip test after MCA occlusion; assay type: in vivo, Sprague-Dawley rats; conditions: 7 and 14 days after ischemia, 12 nmol/kg i.v. before MCA occlusion, n=8/group
[2] = test system: intracerebral hemorrhage and traumatic brain injury; conditions: intravenous administration; cited from earlier work

In the case of human BNP [hBNP], the “grip test vs control” value [1] is reported as “no differences were observed”.
In the case of nesiritide, the cerebral blood flow [2] is given as “improved the cerebral blood flow”, the functional outcome [2] is given as “better functional outcome” and the “inflammation and brain injury” value [2] is given as “reduced the inflammation and brain injury”.
